From US9029370B2, “Substituted benzamide derivatives” (Hoffmann-La Roche Inc., priority 2011, dated 2015)
Structures can show the parent of a compound that is named as a salt.

Key:
rat TAAR1 = rat TAAR1 (Rattus norvegicus (Rat), UniProt Q923Y9); assay: Radioligand binding assay on rat TAAR1; details: rat TAAR1, HEK-293 membranes; second value of the pair (line below); read-out: Ki (μM) mouse/rat
Method: (§1) For the construction of expression plasmids the coding sequences of human, rat and mouse TAAR 1 were amplified from genomic DNA essentially as described by Lindemann et al.. The Expand High Fidelity PCR System (Roche Diagnostics) was used with 1.5 mM Mg^2+ and purified PCR products were cloned into pCR2.1-TOPO cloning vector (Invitrogen) following the instructions of the manufacturer. PCR products were subcloned into the pIRESneo2 vector (BD Clontech, Palo Alto, Calif.), and expression vectors were sequence verified before introduction in cell lines.
(§2) HEK293 cells (ATCC # CRL-1573) were cultured essentially as described by Lindemann et al. (2005). For the generation of stably transfected cell lines HEK293 cells were transfected with the pIRESneo2 expression plasmids containing the TAAR coding sequences (described above) with Lipofectamine 2000 (Invitrogen) according to the instructions of the manufacturer, and 24 hrs post transfection the culture medium was supplemented with 1 mg/ml G418 (Sigma, Buchs, Switzerland). After a culture period of about 10 d clones were isolated, expanded and tested for responsiveness to trace amines (all compounds purchased from Sigma) with the cAMP Biotrak Enzyme immunoassay (EIA) System (Amersham) following the non-acetylation EIA procedure provided by the manufacturer.
Radioligand Binding Assay on Rat TAAR1
(§3) Membrane Preparation and Radioligand Binding.
(§4) HEK-293 cells stably expressing rat TAAR1 were maintained at 37° C. and 5% CO2 in DMEM high glucose medium, containing fetal calf serum (10%, heat inactivated for 30 min at 56° C.), penicillin/streptomycin (1%), and 375 μg/ml geneticin (Gibco). Cells were released from culture flasks using trypsin/EDTA, harvested, washed twice with ice-cold PBS (without Ca^2+ and Mg^2+), pelleted at 1′000 rpm for 5 min at 4° C., frozen and stored at −80° C. […] The homogenate was centrifuged at 48′000×g for 30 min at 4° C. Subsequently, the supernatant was removed and discarded, and the pellet resuspended in 20 ml HEPES-NaOH (20 mM, pH 7.4) containing 0.1 mM EDTA using the Polytron (20 s at 14′000 rpm). This procedure was repeated and the final pellet resuspended in HEPES-NaOH containing 0.1 mM EDTA and homogenized using the Polytron. Typically, aliquots of 2 ml membrane portions were stored at −80° C. With each new membrane batch the dissociation constant (Kd) was determined via a saturation curve. […] Nonspecific binding was defined as the amount of ^3[H]-(S)-4-[(ethyl-phenyl-amino)-methyl]-4,5-dihydro-oxazol-2-ylamine bound in the presence of 10 μM unlabeled ligand. All compounds were tested at a broad range of concentrations (10 pM to 10 μM) in duplicates. […] The 96 deep well plates were incubated for 1 hr at 4° C. Incubations were terminated by rapid filtration through Unifilter-96 plates (Packard Instrument Company) and glass filters GF/C (Perkin Elmer) presoaked for 1 hr in polyethylenimine (0.3%) and washed 3 times with 1 ml of cold binding buffer. After addition of 45 μl of Microscint 40 (PerkinElmer) the Unifilter-96 plate was sealed and after 1 hr the ratioactivity counted using a TopCount Microplate Scintillation Counter (Packard Instrument Company).

mouse TAAR1 = mouse TAAR1 (Mus musculus (Mouse), UniProt Q923Y8); assay: Radioligand binding assay on mouse TAAR1; details: mouse TAAR1, HEK-293 membranes; first value of the pair (before the slash); read-out: Ki (μM) mouse/rat
Sequence of mouse TAAR1 (Q923Y8 whole entry): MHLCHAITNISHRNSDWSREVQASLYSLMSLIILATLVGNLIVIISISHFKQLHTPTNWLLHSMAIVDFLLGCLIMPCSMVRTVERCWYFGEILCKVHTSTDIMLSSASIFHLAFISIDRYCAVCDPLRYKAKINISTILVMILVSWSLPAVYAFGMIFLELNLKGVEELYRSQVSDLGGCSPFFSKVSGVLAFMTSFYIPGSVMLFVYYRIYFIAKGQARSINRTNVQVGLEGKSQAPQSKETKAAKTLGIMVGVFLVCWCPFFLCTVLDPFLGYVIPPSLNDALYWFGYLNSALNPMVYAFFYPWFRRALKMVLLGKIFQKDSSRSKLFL
Method: as §1, §2
Radioligand Binding Assay on Mouse TAAR1
as §3
as §4, with “expressing mouse” for “expressing rat”

Sequence of rat TAAR1 (Q923Y9 whole entry): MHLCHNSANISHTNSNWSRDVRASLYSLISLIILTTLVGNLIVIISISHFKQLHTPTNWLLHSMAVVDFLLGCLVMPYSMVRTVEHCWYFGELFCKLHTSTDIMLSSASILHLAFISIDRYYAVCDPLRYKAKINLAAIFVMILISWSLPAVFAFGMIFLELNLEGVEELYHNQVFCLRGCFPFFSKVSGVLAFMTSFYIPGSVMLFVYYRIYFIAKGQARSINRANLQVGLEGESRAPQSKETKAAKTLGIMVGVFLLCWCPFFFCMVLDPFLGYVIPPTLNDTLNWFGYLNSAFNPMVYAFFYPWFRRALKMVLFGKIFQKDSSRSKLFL

Structure (SMILES)	Ki (rat TAAR1) [µM]	Ki (mouse TAAR1) [µM]
O=C(NCc1cccc(OC(F)F)c1)Nc1ccc([C@@H]2CNCCO2)cc1F [Example 77, (R)-1-(3-(Difluoromethoxy)benzyl)-3-(2-fluoro-4-(morpholin-2-yl)phenyl)urea]	0.0064	0.001
COc1cc(C(=O)Nc2ccc([C@@H]3CNCCO3)cc2F)cc(Cl)n1 [Example 24, 2-Chloro-N—((R)-2-fluoro-4-morpholin-2-yl-phenyl)-6-methoxy-isonicotinamide]	0.007	0.0032
O=C(Nc1ccc([C@H]2CNCCO2)cc1Cl)c1ccc(Cl)cc1 [Example 34, (S)-4-Chloro-N-(2-chloro-4-(morpholin-2-yl)phenyl)benzamide]	0.0229	0.0024
O=C(Nc1ccc(C(F)(F)F)nc1)Nc1ccc([C@H]2CNCCO2)cc1F [Example 11, 1-((S)-2-Fluoro-4-morpholin-2-yl-phenyl)-3-(6-trifluoromethyl-pyridin-3-yl)-urea]	0.0095	0.0035
N#Cc1cccc(CNC(=O)Nc2ccc([C@@H]3CNCCO3)cc2F)c1 [Example 15, 1-(3-Cyano-benzyl)-3-((R)-2-fluoro-4-morpholin-2-yl-phenyl)-urea]	0.0544	0.0074
N#Cc1ccc(OC(F)F)c(NC(=O)Nc2ccc([C@@H]3CNCCO3)cc2F)c1 [Example 72, 1-(5-Cyano-2-difluoromethoxy-phenyl)-3-((R)-2-fluoro-4-morpholin-2-yl-phenyl)-urea hydrochloride]	0.001	0.0019
N#Cc1cc(F)cc(NC(=O)Nc2ccc([C@H]3CNCCO3)cc2F)c1 [Example 26, 1-(3-Cyano-5-fluoro-phenyl)-3-((S)-2-fluoro-4-morpholin-2-yl-phenyl)-urea]	0.002	0.0012
N#Cc1ccc(-n2cc(C(=O)Nc3ccc([C@H]4CNCCO4)c(F)c3)cn2)c(F)c1 [Example 108, (S)-1-(4-Cyano-2-fluorophenyl)-N-(3-fluoro-4-(morpholin-2-yl)phenyl)-1H-pyrazole-4-carboxamide hydrochloride]	0.0059	0.0054
N#Cc1ccc(-n2cc(C(=O)Nc3ccc([C@H]4CNCCO4)cc3F)cn2)c(F)c1 [Example 110, (S)-1-(4-Cyano-2-fluorophenyl)-N-(2-fluoro-4-(morpholin-2-yl)phenyl)-1H-pyrazole-4-carboxamide hydrochloride]	0.0152	0.0088
N#Cc1ccc(OC(F)F)c(NC(=O)Nc2ccc([C@@H]3CNCCO3)cc2Br)c1 [Example 60, 1-((R)-2-Bromo-4-morpholin-2-yl-phenyl)-3-(5-cyano-2-difluoromethoxy-phenyl)-urea]	0.001	0.0008
N#Cc1ccc(F)c(NC(=O)Nc2ccc([C@@H]3CNCCO3)cc2F)c1 [Example 56, 1-(5-Cyano-2-fluoro-phenyl)-3-((R)-2-fluoro-4-morpholin-2-yl-phenyl)-urea]	0.0035	0.002
COc1cc(C(=O)Nc2ccc([C@H]3CNCCO3)cc2Cl)cc(C#N)n1 [Example 124, (S)—N-(2-Chloro-4-(morpholin-2-yl)phenyl)-2-cyano-6-methoxyisonicotinamide hydrochloride]	0.0231	0.0235
O=C(Nc1ccc([C@H]2CNCCO2)c(F)c1)c1cnc(C(F)(F)F)cn1 [Example 137, (S)—N-(3-Fluoro-4-(morpholin-2-yl)phenyl)-5-(trifluoromethyl)pyrazine-2-carboxamide hydrochloride]	0.0301	0.0067
O=C(Nc1ccc([C@H]2CNCCO2)cc1Cl)c1ccn(-c2ccc(F)cc2)n1 [Example 29, (S)—N-(2-Chloro-4-(morpholin-2-yl)phenyl)-1-(4-fluorophenyl)-1H-pyrazole-3-carboxamide]	0.0036	0.0017
Cc1cc(C(=O)Nc2ccc([C@H]3CNCCO3)c(Cl)c2)cc(C(N)=O)n1 [Example 118, (S)—N4-(3-Chloro-4-(morpholin-2-yl)phenyl)-6-methylpyridine-2,4-dicarboxamide hydrochloride]	0.264	0.0416
O=C(Nc1ccc(Cl)nc1)Nc1ccc([C@H]2CNCCO2)cc1F [Example 9, 1-(6-Chloro-pyridin-3-yl)-3-((S)-2-fluoro-4-morpholin-2-yl-phenyl)-urea]	0.0105	0.0017
COc1ccc(C#N)cc1NC(=O)Nc1ccc([C@H]2CNCCO2)cc1Cl [Example 46, (S)-1-(2-Chloro-4-(morpholin-2-yl)phenyl)-3-(5-cyano-2-methoxyphenyl)urea]	0.0064	0.0016
N#Cc1ccc(NC(=O)Nc2ccc([C@H]3CNCCO3)cc2Br)cn1 [Example 66, (S)-1-(2-bromo-4-(morpholin-2-yl)phenyl)-3-(6-cyanopyridin-3-yl)urea]	0.0161	0.0033
O=C(Nc1ccc([C@H]2CNCCO2)cc1F)c1cnn(-c2ccc(F)cc2)c1 [Example 22, (S)—N-(2-fluoro-4-(morpholin-2-yl)phenyl)-1-(4-fluorophenyl)-1H-pyrazole-4-carboxamide]	0.0036	0.002
N#Cc1ccc(OC(F)F)c(NC(=O)Nc2ccc([C@H]3CNCCO3)cc2F)c1 [Example 71, 1-(5-Cyano-2-difluoromethoxy-phenyl)-3-((S)-2-fluoro-4-morpholin-2-yl-phenyl)-urea hydrochloride]	0.0012	0.0018
N#Cc1ccc(-n2cc(C(=O)Nc3ccc([C@H]4CNCCO4)c(Cl)c3)cn2)c(F)c1 [Example 109, (S)—N-(3-Chloro-4-(morpholin-2-yl)phenyl)-1-(4-cyano-2-fluorophenyl)-1H-pyrazole-4-carboxamide hydrochloride]	0.0038	0.0026
Cc1nc(C(=O)Nc2ccc([C@H]3CNCCO3)cc2F)ccc1C#N [Example 135, (S)-5-Cyano-N-(2-fluoro-4-(morpholin-2-yl)phenyl)-6-methylpicolinamide hydrochloride]	0.578	0.0105
N#Cc1cccc(NC(=O)Nc2ccc([C@@H]3CNCCO3)cc2F)c1 [Example 3, 1-(3-Cyano-phenyl)-3-((R)-2-fluoro-4-morpholin-2-yl-phenyl)-urea]	0.0015	0.0016
O=C(Nc1ccc([C@H]2CNCCO2)cc1Cl)c1ccc(Cl)nc1 [Example 36, (S)-6-Chloro-N-(2-chloro-4-(morpholin-2-yl)phenyl)nicotinamide]	0.488	0.0139
Cc1cc(C(=O)Nc2ccc([C@H]3CNCCO3)c(F)c2)cc(C(N)=O)n1 [Example 114, (S)—N4-(3-Fluoro-4-(morpholin-2-yl)phenyl)-6-methylpyridine-2,4-dicarboxamide hydrochloride]	0.265	0.0649
